Results as given in US9499550B2 (BRISTOL-MYERS SQUIBB COMPANY, priority 2012, dated 2016).

Columns and labels:
[1] = tested on: HCV genotype 1b (Con1) replicon in HUH-7 cells; test: HCV replicon luciferase reporter assay, genotype 1b; assay type: cell-based; details: Hepatitis C virus, Huh-7, 72 h, HCV genotype 1b replicon luciferase, 3 days incubation, read-out: LE_1b (EC50, range)
Summary of the method: (§1)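 Replicon inhibition for both genotypes was measured as Renilla luciferase signal (EnduRen, 7.5 μM final, 2 h) after 3-day, 37° C exposure of replicon-bearing HUH-7 cells in 4% FCS DMEM, 0.5% DMSO. The 1b construct carries S1179I; the 1a H77 construct carries P1496L and S2204I. Twenty-point, 3-fold dilutions were fitted four-parametrically for EC50, and CC50 was taken from multiplexed Cell Titer-Blue.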

[2] = tested on: HCV genotype 1a (H77 strain) replicon in HUH-7 cells; test: HCV replicon luciferase reporter assay, genotype 1a; assay type: cell-based; details: Hepatitis C virus, Huh-7, 72 h, HCV genotype 1a replicon luciferase, 3 days incubation, read-out: LE_1a (EC50, range)
Summary of the method: as §1

| SMILES | EC50 [1] [nM] | EC50 [2] [nM] |
| --- | --- | --- |
| C[C@@H]1CC/C=C\[C@@H]2C[C@@]2(C(=O)NS(=O)(=O)C2(C)CC2)NC(=O)[C@@H]2C[C@@H](Oc3ncc(N4CCOCC4)c4ccccc34)CN2C(=O)[C@@H](NC(=O)OC(C)(C)C(F)(F)F)[C@H](C)C1 [Compound 5423, 1,1,1-trifluoro-2-methylpropan-2-yl((2R,6S,7R,9R,13aS,14aR,16aS,Z)-7,9-dimethyl-14a-(((1-methylcyclopropyl)sulfonyl)carbamoyl)-2-((4-morpholinoisoquinolin-1-yl)oxy)-5,16-dioxo-1,2,3,5,6,7,8,9,10,11,13a,14,14a,15,16,16a-hexadecahydrocyclopropa[e]pyrrolo[1,2-a][1,4]diazacyclopentadecin-6-yl)carbamate] | 0.51 to 1 | 1.01 to 5 |
| CC[C@@H]1C[C@H](C)CC/C=C\[C@@H]2C[C@@]2(C(=O)NS(=O)(=O)C2(CF)CC2)NC(=O)[C@@H]2C[C@@H](Oc3nccc4c5c(ccc34)OCCO5)CN2C(=O)[C@H]1NC(=O)OC(C)(C)C [Compound 5425, tert-butyl ((2R,6S,7R,9R,13aS,14aR,16aS,Z)-2-((2,3-dihydro-[1,4]dioxino[2,3-f]isoquinolin-7-yl)oxy)-7-ethyl-14a-(((1-(fluoromethyl)cyclopropyl)sulfonyl)carbamoyl)-9-methyl-5,16-dioxo-1,2,3,5,6,7,8,9,10,11,13a,14,14a,15,16,16a-hexadecahydrocyclopropa[e]pyrrolo[1,2-a][1,4]diazacyclopentadecin-6-yl)carbamate] | 1.01 to 5 | 1.01 to 5 |
| CC[C@@H]1C[C@H](C)CC/C=C\[C@@H]2C[C@@]2(C(=O)NS(=O)(=O)C2(CF)CC2)NC(=O)[C@@H]2C[C@@H](Oc3nccc4c5c(ccc34)OCCO5)CN2C(=O)[C@H]1NC(=O)OC(C)(C)C(F)(F)F [Compound 5427, 1,1,1-trifluoro-2-methylpropan-2-yl((2R,6S,7R,9R,13aS,14aR,16aS,Z)-2-((2,3-dihydro-[1,4]dioxino[2,3-f]isoquinolin-7-yl)oxy)-7-ethyl-14a-(((1-(fluoromethyl)cyclopropyl)sulfonyl)carbamoyl)-9-methyl-5,16-dioxo-1,2,3,5,6,7,8,9,10,11,13a,14,14a,15,16,16a-hexadecahydrocyclopropa[e]pyrrolo[1,2-a][1,4]diazacyclopentadecin-6-yl)carbamate] | 5.01 to 35 | 5.01 to 35 |
| [2H]C([2H])([2H])C(OC(=O)N[C@@H]1C(=O)N2C[C@H](Oc3nccc4cc(OC)c(F)cc34)C[C@H]2C(=O)N[C@]2(C(=O)NS(=O)(=O)C3(C)CC3)C[C@H]2/C=C\CC[C@@H](C)C[C@H]1CC)(C([2H])([2H])[2H])C(F)(F)F [Compound 5429] | 1.01 to 5 | 1.01 to 5 |
| [2H]C([2H])([2H])C(OC(=O)N[C@@H]1C(=O)N2C[C@H](Oc3ncc(OC)c4ccccc34)C[C@H]2C(=O)N[C@]2(C(=O)NS(=O)(=O)C3(C)CC3)C[C@H]2/C=C\CC[C@@H](C)C[C@H]1CC)(C([2H])([2H])[2H])C(F)(F)F [Compound 5431] | 1.01 to 5 | 1.01 to 5 |
| [2H]C([2H])([2H])C(OC(=O)N[C@@H]1C(=O)N2C[C@H](Oc3ncc(OC)c4ccccc34)C[C@H]2C(=O)N[C@]2(C(=O)NS(=O)(=O)C3CC3)C[C@H]2/C=C\CC[C@@H](C)C[C@H]1CC)(C([2H])([2H])[2H])C(F)(F)F [Compound 5433] | 0.1 to 0.5 | 0.51 to 1 |
| CC[C@@H]1C[C@@H](C)CC/C=C\[C@@H]2C[C@@]2(C(=O)NS(=O)(=O)C2(C)CC2)NC(=O)[C@@H]2C[C@@H](Oc3nccc4cc(OC)c(F)cc34)CN2C(=O)[C@H]1NC(=O)OC(C)(C)C(C)(F)F [Compound 5434, 3,3-difluoro-2-methylbutan-2-yl((2R,6S,7R,9S,13aS,14aR,16aS,Z)-7-ethyl-2-((7-fluoro-6-methoxyisoquinolin-1-yl)oxy)-9-methyl-14a-(((1-methylcyclopropyl)sulfonyl)carbamoyl)-5,16-dioxo-1,2,3,5,6,7,8,9,10,11,13a,14,14a,15,16,16a-hexadecahydrocyclopropa[e]pyrrolo[1,2-a][1,4]diazacyclopentadecin-6-yl)carbamate] | 1.01 to 5 | 1.01 to 5 |
| CC[C@@H]1C[C@H](C)CC/C=C\[C@@H]2C[C@@]2(C(=O)NS(=O)(=O)C2(C)CC2)NC(=O)[C@@H]2C[C@@H](Oc3nccc4cc(OC)c(F)cc34)CN2C(=O)[C@H]1NC(=O)OC(C)(C)C(C)(F)F [Compound 5435, 3,3-difluoro-2-methylbutan-2-yl((2R,6S,7R,9R,13aS,14aR,16aS,Z)-7-ethyl-2-((7-fluoro-6-methoxyisoquinolin-1-yl)oxy)-9-methyl-14a-(((1-methylcyclopropyl)sulfonyl)carbamoyl)-5,16-dioxo-1,2,3,5,6,7,8,9,10,11,13a,14,14a,15,16,16a-hexadecahydrocyclopropa[e]pyrrolo[1,2-a][1,4]diazacyclopentadecin-6-yl)carbamate] | 1.01 to 5 | 1.01 to 5 |
| CC[C@@H]1C[C@H](C)CC/C=C\[C@@H]2C[C@@]2(C(=O)NS(=O)(=O)C2(C)CC2)NC(=O)[C@@H]2C[C@@H](Oc3ncc(OC)c4ccccc34)CN2C(=O)[C@H]1NC(=O)OC(C)(C)C(C)(F)F [Compound 5437, 3,3-difluoro-2-methylbutan-2-yl((2R,6S,7R,9R,13aS,14aR,16aS,Z)-7-ethyl-2-((4-methoxyisoquinolin-1-yl)oxy)-9-methyl-14a-(((1-methylcyclopropyl)sulfonyl)carbamoyl)-5,16-dioxo-1,2,3,5,6,7,8,9,10,11,13a,14,14a,15,16,16a-hexadecahydrocyclopropa[e]pyrrolo[1,2-a][1,4]diazacyclopentadecin-6-yl)carbamate] | 0.1 to 0.5 | 1.01 to 5 |
| CC[C@@H]1C[C@H](C)CC/C=C\[C@@H]2C[C@@]2(C(=O)NS(=O)(=O)C2CC2)NC(=O)[C@@H]2C[C@@H](Oc3ncc(OC)c4ccccc34)CN2C(=O)[C@H]1NC(=O)OC(C)(C)C(C)(F)F [Compound 5439, 3,3-difluoro-2-methylbutan-2-yl((2R,6S,7R,9R,13aS,14aR,16aS,Z)-14a-((cyclopropylsulfonyl)carbamoyl)-7-ethyl-2-((4-methoxyisoquinolin-1-yl)oxy)-9-methyl-5,16-dioxo-1,2,3,5,6,7,8,9,10,11,13a,14,14a,15,16,16a-hexadecahydrocyclopropa[e]pyrrolo[1,2-a][1,4]diazacyclopentadecin-6-yl)carbamate] | 0.1 to 0.5 | 0.51 to 1 |
| CC[C@@H]1C[C@H](C)CC/C=C\[C@@H]2C[C@@]2(C(=O)NS(=O)(=O)C2(CF)CC2)NC(=O)[C@@H]2C[C@@H](Oc3ncc(N4CCOCC4)c4ccccc34)CN2C(=O)[C@H]1NC(=O)OC(C)(C)C [Compound 5441, tert-butyl ((2R,6S,7R,9R,13aS,14aR,16aS,Z)-7-ethyl-14a-(((1-(fluoromethyl)cyclopropyl)sulfonyl)carbamoyl)-9-methyl-2-((4-morpholinoisoquinolin-1-yl)oxy)-5,16-dioxo-1,2,3,5,6,7,8,9,10,11,13a,14,14a,15,16,16a-hexadecahydrocyclopropa[e]pyrrolo[1,2-a][1,4]diazacyclopentadecin-6-yl)carbamate] | 1.01 to 5 | 1.01 to 5 |
